These results are taken from patent publication US20240343704A1, “HALO-SUBSTITUTED AMINO PYRIDINE COMPOUNDS AS INHIBITORS OF THE HAEMATOPOIETIC PROGENITOR KINASE 1 (HPK1)” (priority 2021, published 2024).

For orientation: IC50 means the point on the concentration scale where inhibition reaches its midpoint.

Chain of Lck (h) (P06239 whole entry): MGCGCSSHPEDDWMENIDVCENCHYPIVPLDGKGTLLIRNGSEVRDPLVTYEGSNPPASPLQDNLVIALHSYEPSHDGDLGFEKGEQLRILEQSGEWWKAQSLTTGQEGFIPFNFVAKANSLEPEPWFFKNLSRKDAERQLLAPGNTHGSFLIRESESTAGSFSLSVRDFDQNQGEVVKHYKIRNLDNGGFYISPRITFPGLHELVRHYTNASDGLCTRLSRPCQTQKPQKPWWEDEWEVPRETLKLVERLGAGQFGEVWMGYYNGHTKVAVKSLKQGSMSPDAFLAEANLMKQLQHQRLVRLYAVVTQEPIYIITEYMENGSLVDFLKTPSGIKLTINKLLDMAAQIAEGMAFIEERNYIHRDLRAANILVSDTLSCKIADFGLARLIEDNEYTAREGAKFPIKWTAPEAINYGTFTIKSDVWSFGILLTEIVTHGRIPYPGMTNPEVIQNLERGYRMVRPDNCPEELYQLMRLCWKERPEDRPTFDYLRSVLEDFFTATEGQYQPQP

The first assay deals with T1, Recombinant (1-346) HPK1 (h) (Homo sapiens, UniProt Q92918).
T1 construct: Recombinant (1-346) HPK1 (h) is incubated with 8 mM MOPS pH 7.0
T1 sequence (Q92918 1-346): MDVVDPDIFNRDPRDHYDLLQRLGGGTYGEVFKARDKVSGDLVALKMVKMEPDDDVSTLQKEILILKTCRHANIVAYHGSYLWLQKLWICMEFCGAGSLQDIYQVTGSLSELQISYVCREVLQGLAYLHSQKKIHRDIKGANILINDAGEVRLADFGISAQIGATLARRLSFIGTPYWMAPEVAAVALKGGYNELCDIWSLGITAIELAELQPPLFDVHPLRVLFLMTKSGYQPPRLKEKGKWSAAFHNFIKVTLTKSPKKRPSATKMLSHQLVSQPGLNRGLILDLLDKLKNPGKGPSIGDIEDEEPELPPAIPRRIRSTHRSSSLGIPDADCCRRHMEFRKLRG
The experiment in a line: HPK1 Human STE Kinase Enzymatic Radiometric Assay. It is filed as biochemical. Particulars: read-out: HPK1 IC50 nM Range*. How it is done:
A stock solution of 10 mM of test compound is prepared in DMSO. The compound plate was prepared by 3-fold and 9-point serial dilutions. […] The reaction is initiated by The addition of the Mg/ATP mix. After incubation for 40 minutes at RT, the reaction is stopped by the addition of phosphoric acid to a concentration of 0.5%.
With `Cc1c[nH]c(=O)c2ccc(-c3cc(-c4ccc5c(c4)[C@H](N(C)C)CO5)c(F)nc3N)cc12` [I-629, (S)-6-(2-amino-5-(3-(dimethylamino)-2,3-dihydrobenzofuran-5-yl)-6-fluoropyridin-3-yl)-4-methylisoquinolin-1(2H)-one], the IC50 lay within 101 to 1000 nM. On the same count and under the same terms, the value for `CN(C)[C@@H]1COc2ccc(-c3cc(-c4ccc5c(=O)[nH]cc(F)c5c4)c(N)nc3F)cc21` [I-630, (S)-6-(2-amino-5-(3-(dimethylamino)-2,3-dihydrobenzofuran-5-yl)-6-fluoropyridin-3-yl)-4-fluoroisoquinolin-1(2H)-one] was 11 to 100 nM; that for `CN(C)[C@@H]1CCOc2ccc(-c3cc(-c4ccc5c(=O)[nH]cc(F)c5c4)c(N)nc3F)cc21` [I-631, (R)-6-(2-amino-5-(4-(dimethylamino)chroman-6-yl)-6-fluoropyridin-3-yl)-4-fluoroisoquinolin-1(2H)-one] was 11 to 100 nM. On the same count and under the same terms, with `COc1ccc(-c2cc(-c3ccc4c(c3)CCNC4=O)c(N)nc2F)cc1C#N` [I-632, 5-(6-amino-2-fluoro-5-(1-oxo-1,2,3,4-tetrahydroisoquinolin-6-yl)pyridin-3-yl)-2-methoxybenzonitrile] the figure was 11 to 100 nM; with `CCN(C)Cc1cc(-c2cc(-c3ccc4c(=O)[nH]cc(F)c4c3)c(N)nc2F)ccc1OC` [I-633, 6-(2-amino-5-(3-((ethyl(methyl)amino)methyl)-4-methoxyphenyl)-6-fluoropyridin-3-yl)-4-fluoroisoquinolin-1(2H)-one], 11 to 100 nM; with `CCN(C)Cc1cc(-c2cc(-c3ccc4c(=O)[nH]cc(C)c4c3)c(N)nc2F)ccc1OC` [I-634, 6-(2-amino-5-(3-((ethyl(methyl)amino)methyl)-4-methoxyphenyl)-6-fluoropyridin-3-yl)-4-methylisoquinolin-1(2H)-one], 11 to 100 nM. The same measure, in the same setting: the value for `Nc1nc(F)c(-c2ccc(N3CCN(CC4CC4)CC3)cc2)cc1-c1cc(F)c2c(c1)OCCNC2=O` [I-635, 8-(2-amino-5-(4-(4-(cyclopropylmethyl)piperazin-1-yl)phenyl)-6-fluoropyridin-3-yl)-6-fluoro-3,4-dihydrobenzo[f][1,4]oxazepin-5(2H)-one] was 0.1 to 10 nM; that for `CC(C)N1CCN(c2ccc(-c3cc(-c4cc(F)c5c(c4)OCCNC5=O)c(N)nc3F)cc2)CC1` [I-636, 8-(2-amino-6-fluoro-5-(4-(4-isopropylpiperazin-1-yl)phenyl)pyridin-3-yl)-6-fluoro-3,4-dihydrobenzo[f][1,4]oxazepin-5(2H)-one] was 0.1 to 10 nM. Consider `CC(C)N1CCN(c2ccc(-c3cc(-c4cc(F)c5c(c4)CNC5=O)c(N)nc3F)cc2)CC1` [I-637, 5-(2-amino-6-fluoro-5-(4-(4-isopropylpiperazin-1-yl)phenyl)pyridin-3-yl)-7-fluoroisoindolin-1-one], for which the IC50 was in the range of 11 to 100 nM. On the same count and under the same terms, with `Cn1cnnc1CC1(c2cccc(-c3cc(-c4ccc5c(c4)CCNC5=O)c(N)nc3F)c2)COC1` [I-638, 6-(2-amino-6-fluoro-5-(3-(3-((4-methyl-4H-1,2,4-triazol-3-yl)methyl)oxetan-3-yl)phenyl)pyridin-3-yl)-3,4-dihydroisoquinolin-1(2H)-one] the figure was 101 to 1000 nM. The same measure, in the same setting: the value for `CC(C)N1CCN(c2ccc(-c3ccc(Nc4ccc5c(c4)CCNC5=O)nc3F)cc2)CC1` [I-639, 6-((6-fluoro-5-(4-(4-isoproylpiperazin-1-yl)phenyl)pyridin-2-yl)amino)-3,4-dihydroisoquinolin-1(2H)-one] was more than 1000 nM; that for `Nc1nc(F)c(-c2ccc(N3CCN(CC4CC4(F)F)CC3)cc2)cc1-c1ccc2c(c1)CCNC2=O` (stereo not shown) [I-640, 6-(2-amino-5-(4-(4-((2,2-difluorocyclopropyl)methyl)piperazin-1-yl)phenyl)-6-fluoropyridin-3-yl)-3,4-dihydroisoquinolin-1(2H)-one] was 0.1 to 10 nM. Still for that read-out and setting: with `Nc1nc(F)c(-c2ccc(N3CCN(CCCC(F)F)CC3)cc2)cc1-c1ccc2c(c1)CCNC2=O` [I-641, 6-(2-amino-5-(4-(4-(4,4-difluorobutyl)piperazin-1-yl)phenyl)-6-fluoropyridin-3-yl)-3,4-dihydroisoquinolin-1(2H)-one] the figure was 0.1 to 10 nM. Consider `CN1CCC[C@H]1c1cc(-c2cc(-c3ccc4c(c3)CCNC4=O)c(N)nc2F)ccc1C1CCOCC1` [I-642, (S)-6-(2-amino-6-fluoro-5-(3-(1-methylpyrrolidin-2-yl)-4-(tetrahydro-2H-pyran-4-yl)phenyl)pyridin-3-yl)-3,4-dihydroisoquinolin-1(2H)-one], for which the IC50 is 11 to 100 nM. Still for that read-out and setting: with `Cc1nc2cc(-c3cc(-c4ccc(C5CCOCC5)c([C@@H]5CCCN5)c4)c(F)nc3N)ccc2c(=O)[nH]1` [I-643, (S)-7-(2-amino-6-fluoro-5-(3-(pyrrolidin-2-yl)-4-(tetrahydro-2H-pyran-4-yl)phenyl)pyridin-3-yl)-2-methylquinazolin-4(3H)-one] the figure was 11 to 100 nM; with `Nc1nc(F)c(-c2ccc(N3CCN(CCC4CC4(F)F)CC3)cc2)cc1-c1ccc2c(c1)CCNC2=O` (stereo not shown) [I-644, 6-(2-amino-5-(4-(4-(2-(2,2-difluorocyclopropyl)ethyl)piperazin-1-yl)phenyl)-6-fluoropyridin-3-yl)-3,4-dihydroisoquinolin-1(2H)-one], 0.1 to 10 nM; with `CN(C)Cc1cc(-c2cc(-c3ccc4c(c3)CCNC4=O)c(N)nc2F)ccc1C1CCOCC1` [I-645, 6-(2-amino-5-(3-((dimethylamino)methyl)-4-(tetrahydro-2H-pyran-4-yl)phenyl)-6-fluoropyridin-3-y)-3,4-dihydroisoquinolin-1(2H)-one], 0.1 to 10 nM. On to `Nc1nc(F)c(-c2cccc([C@@H]3CCCN3)c2)cc1-c1ccc2c(c1)CCNC2=O` [I-646, (S)-6-(2-amino-6-fluoro-5-(3-(pyrrolidin-2-yl)phenyl)pyridin-3-yl)-3,4-dihydroisoquinolin-1(2H)-one], for which the IC50 was 0.1 to 10 nM.

The target of a further assay is Lck (h) (Homo sapiens, UniProt P06239). The experiment in a line: Lck Human  Kinase Enzymatic Radiometric Assay. It is filed as biochemical. Conditions: ratio of Lck IC50 to HPK1 IC50. The protocol:
Lck (h) is incubated with 50 mM Tris pH 7.5, 0.1 mM EGTA, 0.1 mM Na3VO4, 250 uM KVEKIGEGTYGVVYK (Cdc2 peptide), 10 mM MgAcetate and [gamma-33P]-ATP (specific activity and concentration as required). The reaction is initiated by the addition of the Mg/ATP mix. After incubation for 40 minutes at RT, the reaction is stopped by the addition of phosphoric acid to a concentration of 0.5%. 10 uL of the reaction is then spotted onto a P30 filtermat and washed four times for 4 minutes in 0.425% phosphoric acid and once in methanol prior to drying and scintillation counting. For more details on the kinase assay procedures see: Gao, Y. et. al.; Biochem J., 451 (2): 313-328, 2013.
`Nc1nc(F)c(-c2ccc(N3C[C@H]4COC[C@H]4C3)cc2)cc1-c1ccc2c(c1)CCNC2=O`: the “LcK IC50/HPK IC50 selectivity” value is given as 323. Same read-out and setting: the value for `Nc1nc(F)c(-c2ccc(C3CCNCC3)cc2)cc1-c1ccc2c(c1)CCNC2=O` [drawing 2673] was 1603; that for `Nc1nc(F)c(-c2cnn(C3CCOCC3)c2)cc1-c1ccc2c(c1)CCNC2=O` [drawing 2675] was 2000; that for `Nc1nc(F)c(-c2ccc(N3CCCC3)cc2)cc1-c1ccc2c(c1)CCNC2=O` [drawing 2677] was 769. On the same count and under the same terms, with `Nc1nc(F)c(-c2ccc(N3CCCCC3)cc2)cc1-c1ccc2c(c1)CCNC2=O` [drawing 2679] the figure was 1250; with `Nc1nc(F)c(-c2ccc(N3C[C@@H]4CCO[C@@H]4C3)cc2)cc1-c1ccc2c(c1)CCNC2=O` [drawing 2683], 1429; with `Nc1nc(F)c(-c2ccc(N3CCNCC3)c(C(F)(F)F)c2)cc1-c1ccc2c(c1)CCNC2=O` [drawing 2685], 2580. Same read-out and setting: the value for `Nc1nc(F)c(-c2ccc3c(c2)OCCCO3)cc1-c1ccc2c(c1)CCNC2=O` [drawing 2687] was 1429. On to `Nc1nc(F)c(-c2ccc(N3CCN4CCCC4C3)cc2)cc1-c1ccc2c(c1)CCNC2=O` (stereo not shown) [drawing 2689], for which the “LcK IC50/HPK IC50 selectivity” value amounted to 1480. On the same count and under the same terms, the value for `Nc1nc(F)c(-c2ccc(N3CCCN4CCCC4C3)cc2)cc1-c1ccc2c(c1)CCNC2=O` (stereo not shown) [drawing 2691] was 1073; that for `Nc1nc(F)c(-c2ccc(C3CCNCC3)cc2)cc1-c1cc2c(cc1F)C(=O)NCC2` [drawing 2693] was 704; that for `Nc1ncc(-c2ccc(N3CCCCC3)cc2)cc1-c1ccc2c(c1)CCNC2=O` [reference compound] was 79. As to `Nc1ncc(-c2ccc(N3C[C@H]4COC[C@H]4C3)cc2)cc1-c1ccc2c(c1)CCNC2=O` [reference compound], the “LcK IC50/HPK IC50 selectivity” value worked out at 51. As to `Nc1ncc(-c2ccc(N3C[C@@H]4CCO[C@@H]4C3)cc2)cc1-c1ccc2c(c1)CCNC2=O` [reference compound], the “LcK IC50/HPK IC50 selectivity” value amounted to 34.

The assay is the same for the next values; noted with them: read-out: Lck IC50 nM Range*.
In the case of `Nc1nc(F)c(-c2ccc(N3CCOCC3)cc2)cc1-c1ccc2c(c1)CCNC2=O` [I-16, 6-(2-amino-6-fluoro-5-(4-morpholinophenyl)pyridin-3-yl)-3,4-dihydroisoquinolin-1(2H)-one], the IC50 was more than 1000 nM. For the compound `Nc1nc(F)c(-c2ccc(N3CCN(CCCC(F)F)CC3)cc2)cc1-c1cc2c(cc1F)C(=O)NCC2` [I-441, 6-(2-amino-5-(4-(4-(4,4-difluorobutyl)piperazin-1-yl)phenyl)-6-fluoropyridin-3-yl)-7-fluoro-3,4-dihydroisoquinolin-1(2H)-one], the IC50 was more than 1000 nM.
